Results on one compound are retold here after patent publication US9253979B2, “Methods of controlling insects” (priority 2010, dated 2016).

Read-outs that look alike come from different tables or passages of the source.

What all share (format): in vivo, Drosophila melanogaster
The test system of experiment [1] is 4A4D Drosophila strain (double mutant, lesions in both the Dα1 subunit and the Dβ2 subunit). The settings on record: for Fold resistance: 4A4D strain relative to Line 14. Here is the method: (§1) Dosage mortality testing was conducted on four strains of Drosophila melanogaster. Each of the Drosophila strains tested had at least one lesion in one of the nAChR subunits or was a control strain lacking a lesion. […] The 4A4D Drosophila strain was a double mutant having lesions in both the Dα1 subunit and the Dβ2 subunit. The susceptible Drosophila strain or control Drosophila strain was the wildtype Drosophila strain in which the EMS lesions were generated, and is referred to in Tables 1-4 as the “Line 14” strain.
(§2) Screening was performed on first instar larvae with five replicates of fifty larvae per vial at each concentration to determine the susceptibility of each Drosophila strain to the spinosyn composition and to an imidacloprid composition. The spinosyn composition (spinosad) included 85% spinosyn A and 15% spinosyn D in a sugar solution. Stock solutions were typically made 0.1% w/v in acetone and then diluted to lower concentrations. The spinosyn or imidacloprid compositions were then applied to the insect diet, allowed to dry and then infested with the insect larvae.
(§3) The concentrations of the spinosyn composition and the imidacloprid composition were selected across a range to provide data enabling the effective dose (ED) that produces a response in 50% of the first instar larvae (ED50) and the effective dose that produces a response in 90% of the first instar larvae (ED90) to be calculated. After administering the spinosyn composition or the imidacloprid composition, the first instar larvae were visually monitored for mortality. Data were analyzed using Probit analysis to determine the ED50 and the ED90, along with upper and lower 95% limits.

Experiment [2] concerns Line 14 (susceptible wildtype control) Drosophila strain. Put plainly: Dosage mortality testing, first instar larvae, Line 14 strain. The settings on record: applied to insect diet, Probit analysis. How it is done:
as §1
Screening was performed on first instar larvae with five replicates of fifty larvae per vial at each concentration to determine the susceptibility of each Drosophila strain to the spinosyn composition and to an imidacloprid composition. The spinosyn composition (spinosad) included 85% spinosyn A and 15% spinosyn D in a sugar solution. Stock solutions were typically made 0.1% w/v in acetone and then diluted to lower concentrations. The spinosyn or imidacloprid compositions were then applied to the insect diet, allowed to dry and then infested with the insect larvae. […]

Experiment [3] concerns Dβ2EMS2 Drosophila strain (lesion in the Dβ2 subunit). The experiment can be described thus: Dosage mortality testing, first instar larvae, Dβ2EMS2 strain. The settings on record: for Fold resistance: Dβ2EMS2 strain relative to Line 14. Here is the method: as §1, §2, §3
In experiment [4] the test system is Dα1EMS1 Drosophila strain (lesion in the Dα1 nAChR subunit). The experiment can be described thus: Dosage mortality testing, first instar larvae, Dα1EMS1 strain. Conditions: for Fold resistance: Dα1EMS1 strain relative to Line 14. Here is the method: as §1, §2, §3
[5] abbreviates: 4A4D strain, first instar larvae, mortality, applied to insect diet, Probit analysis.
The mark [6] stands for this setting: Dβ2EMS2 strain, first instar larvae, mortality, applied to insect diet, Probit analysis.
[7] abbreviates: Dα1EMS1 strain, first instar larvae, mortality, applied to insect diet, Probit analysis.

As for `O=[N+]([O-])NC1=NCCN1Cc1ccc(Cl)nc1` [imidacloprid composition, imidacloprid], the ED50 in experiment [1] (setting [5]) is on record as 3.78 ppm; in experiment [2], 0.14 ppm; in experiment [3] (setting [6]), 4.04 ppm; in experiment [4] (setting [7]) it was 2.91 ppm. For the same compound, the ED90 in experiment [1] (setting [5]) worked out at 7.49 ppm; in experiment [2] it was 0.28 ppm; in experiment [3] (setting [6]), 8.02 ppm; in experiment [4] (setting [7]) it was 5.77 ppm. For the same compound, the Fold resistance turned out to be 26.81 in experiment [1] (ED50 table); 26.81 in experiment [1] (ED90 table); 28.69 in experiment [3] (ED50 table); 28.70 in experiment [3] (ED90 table); 20.63 in experiment [4] (ED50 table); 20.63 in experiment [4] (ED90 table).
